EC50 data for 23 compounds are collected here from US20230108906A1, “SUBSTITUTED BICYCLIC AND TRICYCLIC UREAS AND AMIDES, ANALOGUES THEREOF, AND METHODS USING SAME” (Arbutus Biopharma Corporation, priority 2019, published 2023).

For the first test, the system named is HBV rcDNA in HepDE19 cells. Briefly: HepDE19 assay with bDNA quantitation of HBV rcDNA. Type of test: cell-based, hepatitis B virus (HBV). The note with it: Hepatitis B virus, HepDE19, 168 h, inhibition of rcDNA formation in HepDE19 cells (HepG2 derived), Tet-free medium, 7 day incubation, Quantigene 2.0 bDNA readout, top concentration 25 μM; read-out: DE-19bDNA EC50. How it is done:
HepDE19 Assay with bDNA Quantitation of HBV rcDNA:
HepDE19 cell culture system is a HepG2 (human hepatocarcinoma) derived cell line that supports HBV DNA replication and cccDNA formation in a tetracycline (Tet)-regulated manner and produces HBV rcDNA and a detectable reporter molecule dependent on the production and maintenance of cccDNA (Guo, et al., 2007, J. Virol. 81:12472-12484).
HepDE19 (50,000 cells/well) were plated in 96-well collagen-coated tissue-culture treated microtiter plates in DMEM/F12 medium supplemented with 10% fetal bovine serum, 1% penicillin-streptomycin and 1 μg/mL tetracycline and incubated in a humidified incubator at 37° C. and 5% CO2 overnight. Next day, the cells were switched to fresh medium without tetracycline and incubated for 4 hours at 37° C. and 5% CO2. The cells were treated with fresh Tet-free medium with compounds at concentrations starting at 25 μM and a serial, […], 8-point, titration series in duplicate. The final DMSO concentration in the assay was 0.5%. The plates were incubated for 7 days in a humidified incubator at 37° C. and 5% CO2. Following a 7 day-incubation, the level of rcDNA present in the inhibitor-treated wells was measured using a Quantigene 2.0 bDNA assay kit (Affymetrix, Santa Clara, Calif.) with HBV specific custom probe set and manufacturers instructions. Concurrently, the effect of compounds on cell viability was assessed using replicate plates, plated at a density of 5,000 cells/well and incubated for 4 days, to determine the ATP content as a measure of cell viability using the cell-titer glo reagent (CTG; Promega Corporation, Madison, Wis.) as per manufacturer's instructions. The plates were read using a Victor luminescence plate reader (PerkinElmer Model 1420 Multilabel counter) and the relative luminescence units (RLU) data generated from each well was calculated as % inhibition of the untreated control wells and analyzed using XL-Fit module in Microsoft Excel to determine EC50 and EC90 (bDNA) and CC50 (CTG) values using a 4-parameter curve fitting algorithm.
Representative compounds of the disclosure were tested for their abilities to inhibit formation of relaxed circular DNA (rcDNA) in a HepDE19 assay, as described elsewhere herein.
Broadly, the EC50 is the concentration needed to bring the measured effect to its halfway point. `CN(C(=O)Nc1ccc(F)c(C(F)F)c1)C1COCc2[nH]c(=O)c3cc(F)ccc3c21` (single isomer, unassigned) [Compound 123, 3-(3-(Difluoromethyl)-4-fluorophenyl)-1-(8-fluoro-6-oxo-1,4,5,6-tetrahydro-2H-pyrano[3,4-c]isoquinolin-1-yl)-1-methylurea]: the concentration giving a half-maximal response (EC50) is 560 nM. The same measure, in the same setting: under `CN(C(=O)Nc1ccc(F)c(C(F)F)c1)[C@H]1COCc2[nH]c(=O)c3cc(F)c(F)cc3c21` (single isomer, unassigned) [Compound 125] stands 490 nM; under `CN(C(=O)Nc1ccc(F)c(C(F)F)c1)[C@@H]1COCc2[nH]c(=O)c3cc(F)c(F)cc3c21` (single isomer, unassigned) [Compound 126], 10 nM.

Still in this test, the particulars now being: inhibition of rcDNA formation in HepDE19 cells (HepG2 derived), Tet-free medium, 7 day incubation, Quantigene 2.0 bDNA readout, top concentration 25 μM; read-out: DE-19bDNA EC50.
In the case of `CN(C(=O)Nc1ccc(F)cc1)C1COCc2[nH]c(=O)c3cc(F)c(F)cc3c21` (single isomer, unassigned) [Compound 103, 1-(8,9-Difluoro-6-oxo-1,4,5,6-tetrahydro-2H-pyrano[3,4-c]isoquinolin-1-yl)-3-(4-fluorophenyl)-1-methylurea], the EC50 was found to be 5300 nM.

In the case of `CN(C(=O)Nc1ccc(F)cc1)C1COCc2[nH]c(=O)c3cc(F)c(F)cc3c21` (single isomer, unassigned) [Compound 104, 1-(8,9-Difluoro-6-oxo-1,4,5,6-tetrahydro-2H-pyrano[3,4-c]isoquinolin-1-yl)-3-(4-fluorophenyl)-1-methylurea], the EC50 was 20 nM.

With `CN(C(=O)Nc1cc(F)c(F)c(Cl)c1)C1COCc2[nH]c(=O)c3cc(F)ccc3c21` (single isomer, unassigned) [Compound 107, 3-(3-Chloro-4,5-difluorophenyl)-1-(8-fluoro-6-oxo-1,4,5,6-tetrahydro-2H-pyrano[3,4-c]isoquinolin-1-yl)-1-methylurea], the EC50 is 930 nM.

On to `CN(C(=O)Nc1cc(F)c(F)c(Cl)c1)C1COCc2[nH]c(=O)c3cc(F)ccc3c21` (single isomer, unassigned) [Compound 108, 3-(3-Chloro-4,5-difluorophenyl)-1-(8-fluoro-6-oxo-1,4,5,6-tetrahydro-2H-pyrano[3,4-c]isoquinolin-1-yl)-1-methylurea], for which the concentration giving a half-maximal response (EC50) stood at 20 nM. In the case of `O=C(Nc1ccc(F)c(Cl)c1)N(CCCO)C1COCc2[nH]c(=O)c3cc(F)ccc3c21` (single isomer, unassigned) [Compound 109, 3-(3-Chloro-4-fluorophenyl)-1-(8-fluoro-6-oxo-1,4,5,6-tetrahydro-2H-pyrano[3,4-c]isoquinolin-1-yl)-1-(3-hydroxypropyl)urea], the EC50 came out at 620 nM.

For `O=C(Nc1ccc(F)c(Cl)c1)N(CCCO)C1COCc2[nH]c(=O)c3cc(F)ccc3c21` (single isomer, unassigned) [Compound 110, 3-(3-Chloro-4-fluorophenyl)-1-(8-fluoro-6-oxo-1,4,5,6-tetrahydro-2H-pyrano[3,4-c]isoquinolin-1-yl)-1-(3-hydroxypropyl)urea], the half-maximal effective concentration (EC50) is 20 nM. As to `CC(C)(O)CN(C(=O)Nc1ccc(F)c(Cl)c1)C1COCc2[nH]c(=O)c3cc(F)ccc3c21` (single isomer, unassigned) [Compound 111, 3-(3-Chloro-4-fluorophenyl)-1-(8-fluoro-6-oxo-1,4,5,6-tetrahydro-2H-pyrano[3,4-c]isoquinolin-1-yl)-1-(2-hydroxy-2-methylpropyl)urea], the EC50 is 200 nM. Consider `CC(C)(O)CN(C(=O)Nc1ccc(F)c(Cl)c1)C1COCc2[nH]c(=O)c3cc(F)ccc3c21` (single isomer, unassigned) [Compound 112, 3-(3-Chloro-4-fluorophenyl)-1-(8-fluoro-6-oxo-1,4,5,6-tetrahydro-2H-pyrano[3,4-c]isoquinolin-1-yl)-1-(2-hydroxy-2-methylpropyl)urea], for which the EC50 is 1900 nM. On to `CC(C)CN(C(=O)Nc1cc(F)c(F)c(F)c1)C1COCc2[nH]c(=O)c3cc(F)ccc3c21` (single isomer, unassigned) [Compound 113, 1-(8-Fluoro-6-oxo-2,4,5,6-tetrahydro-1H-pyrano[3,4-c]isoquinolin-1-yl)-1-isobutyl-3-(3,4,5-trifluorophenyl)urea], for which the half-maximal effective concentration (EC50) stood at 20 nM.

In the case of `CC(C)CN(C(=O)Nc1cc(F)c(F)c(F)c1)C1COCc2[nH]c(=O)c3cc(F)ccc3c21` (single isomer, unassigned) [Compound 114, 1-(8-Fluoro-6-oxo-2,4,5,6-tetrahydro-1H-pyrano[3,4-c]isoquinolin-1-yl)-1-isobutyl-3-(3,4,5-trifluorophenyl)urea], the EC50 worked out at 410 nM. Same read-out and setting: in the case of `CC(C)CN(C(=O)Nc1ccc(F)c(C#N)c1)C1COCc2[nH]c(=O)c3cc(F)ccc3c21` (single isomer, unassigned) [Compound 115, 3-(3-Cyano-4-fluorophenyl)-1-(8-fluoro-6-oxo-1,4,5,6-tetrahydro-2H-pyrano[3,4-c]isoquinolin-1-yl)-1-isobutylurea] it was 10 nM. `CC(C)CN(C(=O)Nc1ccc(F)c(C#N)c1)C1COCc2[nH]c(=O)c3cc(F)ccc3c21` (single isomer, unassigned) [Compound 116, 3-(3-Cyano-4-fluorophenyl)-1-(8-fluoro-6-oxo-1,4,5,6-tetrahydro-2H-pyrano[3,4-c]isoquinolin-1-yl)-1-isobutylurea]: the half-maximal effective concentration (EC50) was 230 nM. As to `CN(C(=O)Nc1ccc(F)c(F)c1)C1COCc2[nH]c(=O)c3cc(F)c(F)cc3c21` (single isomer, unassigned) [Compound 117, 1-(8,9-Difluoro-6-oxo-1,4,5,6-tetrahydro-2H-pyrano[3,4-c]isoquinolin-1-yl)-3-(3,4-difluorophenyl)-1-methylurea], the EC50 is 2700 nM. Still for that read-out and setting: in the case of `CN(C(=O)Nc1ccc(F)c(F)c1)C1COCc2[nH]c(=O)c3cc(F)c(F)cc3c21` (single isomer, unassigned) [Compound 118, 1-(8,9-Difluoro-6-oxo-1,4,5,6-tetrahydro-2H-pyrano[3,4-c]isoquinolin-1-yl)-3-(3,4-difluorophenyl)-1-methylurea] it was 10 nM.

Turning to `CC(C)CN(C(=O)Nc1ccc(F)c(C#N)c1)C1COCc2[nH]c(=O)c3cc(F)c(F)cc3c21` (single isomer, unassigned) [Compound 121, 3-(3-Cyano-4-fluorophenyl)-1-(8,9-difluoro-6-oxo-1,4,5,6-tetrahydro-2H-pyrano[3,4-c]isoquinolin-1-yl)-1-isobutylurea], the EC50 is 10 nM. Same read-out and setting: under `CC(C)CN(C(=O)Nc1ccc(F)c(C#N)c1)C1COCc2[nH]c(=O)c3cc(F)c(F)cc3c21` (single isomer, unassigned) [Compound 122, 3-(3-Cyano-4-fluorophenyl)-1-(8,9-difluoro-6-oxo-1,4,5,6-tetrahydro-2H-pyrano[3,4-c]isoquinolin-1-yl)-1-isobutylurea] stands 120 nM.

Still in this test, the particulars now being: read-out: DE-19bDNA EC50; inhibition of rcDNA formation in HepDE19 cells (HepG2 derived), Tet-free medium, 7 day incubation, Quantigene 2.0 bDNA readout, top concentration 25 μM.
Turning to `CN(C(=O)Nc1ccccc1)C1COCc2[nH]c(=O)c3cc(F)c(F)cc3c21` (single isomer, unassigned) [Compound 101, 1-(8,9-Difluoro-6-oxo-1,4,5,6-tetrahydro-2H-pyrano[3,4-c]isoquinolin-1-yl)-1-methyl-3-phenylurea], the EC50 came to 4700 nM. As for `CN(C(=O)Nc1ccccc1)C1COCc2[nH]c(=O)c3cc(F)c(F)cc3c21` (single isomer, unassigned) [Compound 102, 1-(8,9-Difluoro-6-oxo-1,4,5,6-tetrahydro-2H-pyrano[3,4-c]isoquinolin-1-yl)-1-methyl-3-phenylurea], the EC50 was 30 nM. With `CN(C(=O)Nc1cccc(Cl)c1)C1COCc2[nH]c(=O)c3cc(F)c(F)cc3c21` (single isomer, unassigned) [Compound 119, 3-(3-Chlorophenyl)-1-(8,9-difluoro-6-oxo-1,4,5,6-tetrahydro-2H-pyrano[3,4-c]isoquinolin-1-yl)-1-methylurea], the EC50 stood at 1800 nM.

As for `CN(C(=O)Nc1cccc(Cl)c1)C1COCc2[nH]c(=O)c3cc(F)c(F)cc3c21` (single isomer, unassigned) [Compound 120, 3-(3-Chlorophenyl)-1-(8,9-difluoro-6-oxo-1,4,5,6-tetrahydro-2H-pyrano[3,4-c]isoquinolin-1-yl)-1-methylurea], the EC50 was 10 nM.
